Test results from US20210238187A1, “AZIRIDINE CONTAINING EPOTHILONE ANALOGS, METHODS OF SYNTHESIS, METHODS OF TREATMENT, AND DRUG CONJUGATES” (WILLIAM MARSH RICE UNIVERSITY, priority 2017, published 2021).
Like-named read-outs stand apart in the source and are kept apart here.

Columns and labels:
[1] = tested on: Tubulin; assay: Tubulin assembly induction; format: biochemical
[2] = tested on: NCI/ADR-RES; assay: Cytotoxicity (GI50) assay, NCI/ADR-RES; format: cell-based, human; conditions: read-out: Cancer cell lines GI50, NCI/ADR-RES
[3] = tested on: MDA-MB-435; assay: Cytotoxicity (GI50) assay, MDA-MB-435; format: cell-based, human; conditions: MDA-MB-435; human melanoma cell line; read-out: Cancer cell lines GI50, MDA-MB-435
[4] = tested on: SNB-75; assay: Cytotoxicity (GI50) assay, SNB-75; format: cell-based, human; conditions: SNB-75; human glioblastoma cell line; read-out: Cancer cell lines GI50, SNB-75
[5] = tested on: MCF-7; assay: Cytotoxicity (GI50) assay, MCF-7; format: cell-based, human; conditions: MCF7; human breast cancer cell line; concentration required to decrease cell growth by 50%; read-out: Cancer cell lines GI50, MCF-7
[6] = tested on: MES SA; assay: Cytotoxicity assay (CellTiter-Glo), MES SA; format: cell-based, human; conditions: MES-SA; human uterine sarcoma cell line; 72 hours, CellTiter-Glo; read-out: Cancer cell lines IC50, MES SA
[7] = tested on: OVCAR-8; assay: Cytotoxicity (GI50) assay, OVCAR-8; format: cell-based, human; conditions: OVCAR-8; human ovarian cancer cell line; read-out: Cancer cell lines GI50, OVCAR-8
[8] = tested on: MES SA DX; assay: Cytotoxicity assay (CellTiter-Glo), MES SA DX; format: cell-based, human; conditions: Homo sapiens, read-out: Cancer cell lines IC50, MES SA DX
[9] = Homo sapiens, NCI/ADR-RES, highly drug resistant human ovarian cancer cell line
[10] = MES SA cell line with marked multidrug resistance, 72 hours, CellTiter-Glo

SMILES	EC50 ([1]; […]) [nM]	GI50 [2, 9] [nM]	GI50 [3] [nM]	GI50 [4] [nM]	GI50 [5] [nM]	IC50 [6] [nM]	GI50 [7] [nM]	IC50 [8, 10] [nM]	EC50 [1] [nM]	GI50 ([2]; Homo sapiens, NCI/ADR-RES) [nM]	IC50 ([8]; MES-SA, 72 h) [nM]	GI50 ([2]; highly drug resistant human ovarian cancer cell line) [nM]
C/C(=C\c1csc(C)n1)[C@@H]1C[C@@H]2O[C@]2(C)CCC[C@H](C)[C@H](O)[C@@H](C)C(=O)C(C)(C)[C@@H](O)CC(=O)N1 [compound 5, ixabepilone, reference compound]	4500	1400	–	–	–	–	–	–	–	–	–	–
CSc1nc(/C=C(\C)[C@@H]2C[C@@H]3N(CCO)[C@]3(C)CCC[C@H](C)[C@H](O)[C@@H](C)C(=O)C(C)(C)[C@@H](O)CC(=O)O2)cs1 (stereo partly drawn) [compound 12, (1S,3S,7S,10R,11S,12S,16R)-7,11-Dihydroxy-17-(2-hydroxyethyl)-8,8,10,12,16-pentamethyl-3-{(1E)-1-[2-(methylsulfanyl)-1,3-thiazol-4-yl]prop-1-en-2-yl}-4-oxa-17-azabicyclo[14.1.0]-heptadecane-5,9-dione]	14000	55	42	60	28	0.13	75	0.66	–	–	–	–
CC(=Cc1csc(C)n1)C1CC=CCCCC(C)C(O)C(C)C(=O)C(C)(C)C(O)CC(=O)O1 (stereo not drawn) [compound 3, epothilone C, reference compound]	–	–	–	–	70	31.5	110	–	18000	–	–	–
C/C(=C\c1csc(C)n1)[C@@H]1C[C@@H]2N[C@]2(C)CCC[C@H](C)[C@H](O)[C@@H](C)C(=O)C(C)(C)[C@@H](O)CC(=O)O1 [compound 10, (1S,3S,7S,10R,11S,12S,16R)-7,11-Dihydroxy-8,8,10,12,16-pentamethyl-3-[(1E)-1-(2-methyl-1,3-thiazol-4-yl)prop-1-en-2-yl]-4-oxa-17-azabicyclo[14.1.0]heptadecane-5,9-dione]	19000	35	–	–	2	0.04	1.5	0.51	–	–	–	–
CC(=Cc1csc(C)n1)C1CC2OC2CCCC(C)C(O)C(C)C(=O)C(C)(C)C(O)CC(=O)O1 (stereo not drawn) [compound 1, epothilone A]	–	–	16	26	17	1.46	20	–	22000	78	5.12	–
C/C(=C\c1csc(CN)n1)[C@@H]1C[C@@H]2N(CCO)[C@]2(C)CCC[C@H](C)[C@H](O)[C@@H](C)C(=O)C(C)(C)[C@@H](O)CC(=O)O1 (stereo partly drawn) [compound 13, (1S,3S,7S,10R,11S,12S,16R)-3-{(1E)-1-[2-(Aminomethyl)-1,3-thiazol-4-yl]prop-1-en-2-yl}-7,11-dihydroxy-17-(2-hydroxyethyl)-8,8,10,12,16-pentamethyl-4-oxa-17-azabicyclo[14.1.0]heptadecane-5,9-dione]	> 60000	2800	20	130	65	0.078	93	0.85	–	–	–	–
CSc1nc(/C=C(\C)[C@@H]2C[C@@H]3N(CC4CC4)[C@]3(C)CCC[C@H](C)[C@H](O)[C@@H](C)C(=O)C(C)(C)[C@@H](O)CC(=O)O2)cs1 (stereo partly drawn) [compound 38, (1S,3S,7S,10R,11S,12S,16R)-17-(Cyclopropylmethyl)-7,11-dihydroxy-8,8,10,12,16-pentamethyl-3-{(1E)-1-[2-(methylsulfanyl)-1,3-thiazol-4-yl]prop-1-en-2-yl}-4-oxa-17-azabicyclo-[14.1.0]heptadecane-5,9-dione]	5100	18	9.5	16	18	0.056	15	1.26	–	–	–	–
CSc1nc(/C=C(\C)[C@@H]2C[C@@H]3N(CCN=[N+]=[N-])[C@]3(C)CCC[C@H](C)[C@H](O)[C@@H](C)C(=O)C(C)(C)[C@@H](O)CC(=O)O2)cs1 (stereo partly drawn) [compound 34, (1S,3S,7S,10R,11S,12S,16R)-17-(2-Azidoethyl)-7,11-dihydroxy-8,8,10,12,16-pentamethyl-3-{(1E)-1-[2-(methylsulfanyl)-1,3-thiazol-4-yl]prop-1-en-2-yl}-4-oxa-17-azabicyclo[14.1.0]heptadecane-5,9-dione]	5400	3.2 to 8.8	7.3	22	13	0.24	15	0.52	–	–	–	3.2
C/C(=C\c1nc2ccccc2s1)[C@@H]1C[C@@H]2N(CCO)[C@]2(C)CCC[C@H](C)[C@H](O)[C@@H](C)C(=O)C(C)(C)[C@@H](O)CC(=O)O1 (stereo partly drawn) [compound 24, (1S,3S,7S,10R,11S,12S,16R)-3-[(1E)-1-(1,3-Benzothiazol-2-yl)prop-1-en-2-yl]-7,11-dihydroxy-17-(2-hydroxyethyl)-8,8,10,12,16-pentamethyl-4-oxa-17-azabicyclo[14.1.0]heptadecane-5,9-dione]	7900	630	3.5	12	11	0.18	23	1.32	–	–	–	–
C/C(=C\c1ccccn1)[C@@H]1C[C@@H]2N(CCO)[C@]2(C)CCC[C@H](C)[C@H](O)[C@@H](C)C(=O)C(C)(C)[C@@H](O)CC(=O)O1 (stereo partly drawn) [compound 21, (1S,3S,7S,10R,11S,12S,16R)-7,11-Dihydroxy-17-(2-hydroxyethyl)-8,8,10,12,16-pentamethyl-3-[(1E)-1-(pyridin-2-yl)prop-1-en-2-yl]-4-oxa-17-azabicyclo[14.1.0]heptadecane-5,9-dione]	> 60000	4000	30	98	250	0.685	170	764	–	–	–	–
CSc1nc(/C=C(\C)[C@@H]2C[C@@H]3N[C@]3(C)CCC[C@H](C)[C@H](O)[C@@H](C)C(=O)C(C)(C)[C@@H](O)CC(=O)O2)cs1 [compound 14, (1S,3S,7S,10R,11S,12S,16R)-7,11-Dihydroxy-8,8,10,12,16-pentamethyl-3-{(1E)-1-[2-(methyl-sulfanyl)-1,3-thiazol-4-yl]prop-1-en-2-yl}-4-oxa-17-azabicyclo[14.1.0]heptadecane-5,9-dione]	5000	–	4.5	11	4	0.28	16	5.66	–	–	–	–
CSc1nc(/C=C(\C)[C@@H]2C[C@@H]3N(CCN)[C@]3(C)CCC[C@H](C)[C@H](O)[C@@H](C)C(=O)C(C)(C)[C@@H](O)CC(=O)O2)cs1 (stereo partly drawn) [compound 37, (1S,3S,7S,10R,11S,12S,16R)-17-(2-Aminoethyl)-7,11-dihydroxy-8,8,10,12,16-pentamethyl-3-{(1E)-1-[2-(methylsulfanyl)-1,3-thiazol-4-yl]prop-1-en-2-yl}-4-oxa-17-azabicyclo[14.1.0]heptadecane-5,9-dione]	6100	70	15	23	14	0.108	63	12	–	–	–	–
CSc1cc(/C=C(\C)[C@@H]2C[C@@H]3N(CCO)[C@]3(C)CCC[C@H](C)[C@H](O)[C@@H](C)C(=O)C(C)(C)[C@@H](O)CC(=O)O2)nn1C (stereo partly drawn) [compound 23, (1S,3S,7S,10R,11S,12S,16R)-7,11-Dihydroxy-17-(2-hydroxyethyl)-8,8,10,12,16-pentamethyl-3-{(1E)-1-[1-methyl-5-(methylsulfanyl)-1H-pyrazol-3-yl]prop-1-en-2-yl}-4-oxa-17-azabicyclo[14.1.0]heptadecane-5,9-dione]	4600	–	12	10	78	0.22	10	37.8	–	–	–	–
C/C(=C\c1csc(C)n1)[C@@H]1C[C@@H]2N(CCO)[C@]2(C)CCC[C@H](C)[C@H](O)[C@@H](C)C(=O)C(C)(C)[C@@H](O)CC(=O)O1 (stereo partly drawn) [compound 11, (1S,3S,7S,10R,11S,12S,16R)-7,11-Dihydroxy-17-(2-hydroxyethyl)-8,8,10,12,16-pentamethyl-3-[(1E)-1-(2-methyl-1,3-thiazol-4-yl)prop-1-en-2-yl]-4-oxa-17-azabicyclo[14.1.0]heptadecane-5,9-dione]	18000	55	–	–	3	0.94	4.5	13.7	–	–	–	–
C/C(=C\c1csc(CCN)n1)[C@@H]1C[C@@H]2N(CCO)[C@]2(C)CCC[C@H](C)[C@H](O)[C@@H](C)C(=O)C(C)(C)[C@@H](O)CC(=O)O1 (stereo partly drawn) [compound 20, (1S,3S,7S,10R,11S,12S,16R)-3-{(1E)-1-[2-(2-Aminoethyl)-1,3-thiazol-4-yl]prop-1-en-2-yl}-7,11-dihydroxy-17-(2-hydroxyethyl)-8,8,10,12,16-pentamethyl-4-oxa-17-azabicyclo[14.1.0]heptadecane-5,9-dione]	9100	45	3.8	50	15	16.1	8.6	> 2500	–	–	–	–
